Measurements as given in US20180280377A1, “Imidazo[4,5-c]quinolin-2-one Compounds and Their Use in Treating Cancer” (ASTRAZENECA AB, priority 2015, published 2018).

Each compound was assayed against T1, mTOR (Homo sapiens, UniProt P42345) (assay: mTOR cellular potency assay (phospho-AKT Ser473 in MDA-MB-468 cells)). Conditions: MDA-MB-468 cells, 2 h, phospho-AKT Ser473; Table 2; read-out: Assay d) mTOR Cell IC50.
T1 construct: phosphorylation of the Akt protein at Ser473 (AKT lies downstream of PI3Kα in the signal transduction pathway) in the MDA-MB-468 cells; endogenous in cells; host or cells: MDA-MB-468 cells (ATCC HTB 132)
Assay type: cell-based
Text: The following assays were used to measure the effects of the compounds of the present invention: a) ATM cellular potency assay; b) PI3K cellular potency assay; c) mTOR cellular potency assay; d) ATR cellular potency assay. During the description of the assays, generally: • i. The following abbreviations have been used: 4NQO=4-Nitroquinoline N-oxide; Ab=Antibody; BSA=Bovine Serum Albumin; CO2=Carbon Dioxide; DMEM=Dulbecco's Modified Eagle Medium; DMSO=Dimethyl Sulphoxide; EDTA=Ethylenediaminetetraacetic Acid; EGTA=Ethylene Glycol Tetraacetic Acid; ELISA=Enzyme-linked Immunosorbent Assay; EMEM=Eagle's Minimal Essential Medium; FBS=Foetal Bovine Serum; h=H(s); HRP=Horseradish Peroxidase; i.p.=intraperitoneal; PBS=Phosphate buffered saline; PBST=Phosphate buffered saline/Tween; TRIS=Tris(Hydroxymethyl)aminomethane; MTS reagent: [3-(4,5-dimethylthiazol-2-yl)-5-(3-carboxymethoxyphenyl)-2-(4-sulfophenyl)-2H-tetrazolium, inner salt, and an electron coupling reagent (phenazine methosulfate) PMS; s.c. sub-cutaneously. • ii. IC50 values were calculated using a smart fitting model in Genedata.
This assay was used to measure mTOR inhibition in cells. The aim of the phospho-AKT cell based mechanism of action assay using the Acumen Explorer is to identify inhibitors of either PI3Kα or mTOR-Rictor (Rapamycin insensitive companion of mTOR). This is measured by any decrease in the phosphorylation of the Akt protein at Ser473 (AKT lies downstream of PI3Kα in the signal transduction pathway) in the MDA-MB-468 cells following treatment with compound.
MDA-MB-468 cells (human breast adenocarcinoma #ATCC HTB 132) were seeded at 1500 cells/well in 40 μl of DMEM containing 10% FBS and 1% glutamine into Greiner 384 well black flat-bottomed plates. Cell plates were incubated for 18 h in a 37° C. incubator before dosing with compounds of Formula (I) in 100% DMSO using acoustic dispensing. Compounds were dosed in a 12 point concentration range into a randomised plate map. Control wells were generated either by dosing of 100% DMSO (max signal) or addition of a reference compound (a PI3K-62 inhibitor) that completely eliminated the pAKT signal (min control). Plates were incubated at 37° C. for 2 h; cells were then fixed by the addition of […] of a 3.7% formaldehyde solution. After 30 minutes the plates were washed with PBS using a Tecan PW384 plate washer. Wells were blocked and cells permeabilised with the addition of 40 μl of PBS containing 0.5% Tween20 and 1% Marvel™ (dried milk powder) and incubated for 60 minutes at r.t. The plates were washed with PBS containing 0.5% (v/v) Tween20 and 20 μl rabbit anti-phospho AKT Ser473 (Cell Signalling Technologies, #3787) in same PBS-Tween+1% MarvelTM was added and incubated overnight at 4° C.
Plates were washed 3 times with PBS+0.05% Tween 20 using a Tecan PW384. 20 μl of secondary antibody Alexa Fluor 488 anti-Rabbit (Molecular Probes, # A11008) diluted in PBS+0.05% Tween20 containing 1% Marvel™ was added to each well and incubated for 1 h at r.t. Plates were washed three times as before then 20 μl PBS added to each well and plates sealed with a black plate sealer.
The plates were read on an Acumen plate reader as soon as possible, measuring green fluorescence after excitation with 488 nm laser. Using this system IC50 values were generated and quality of plates was determined by control wells. Reference compounds were run each time to monitor assay performance.

IC50 | SMILES
1.5 µM | CO[C@H]1CC[C@H](n2c(=O)n(C)c3cnc4ccc(-c5ccc(N6CCC(N(C)C)CC6)nc5)cc4c32)C1 (single isomer, unassigned) [Example 32, 8-[6-[4-(dimethylamino)-1-piperidyl]-3-pyridyl]-1-[trans-3-methoxycyclopentyl]-3-methyl-imidazo[4,5-c]quinolin-2-one]
0.616 µM | CN(C)[C@@H]1CCN(c2ccc(-c3ccc4ncc5c(c4c3)n([C@@H]3CCCOC3)c(=O)n5C)cn2)C1 [Example 7]
> 30 µM | CN(C)[C@H]1CCN(c2ccc(-c3cc4c(cc3F)ncc3c4n([C@H]4CCCOC4)c(=O)n3C)cn2)C1 [Example 20]
12.8 µM | CO[C@H]1C[C@@H](n2c(=O)n(C)c3cnc4cc(F)c(-c5ccc(N6CC(N(C)C)C6)nc5)cc4c32)C1 [Example 31, 8-[6-[3-(dimethylamino)azetidin-1-yl]-3-pyridyl]-7-fluoro-1-(cis-3-methoxycyclobutyl)-3-methyl-imidazo[4,5-c]quinolin-2-one]
3.9 µM | CO[C@H]1C[C@@H](n2c(=O)n(C)c3cnc4ccc(-c5ccc(N6CCC(N(C)C)CC6)nc5)cc4c32)C1 [Example 36, 8-[6-[4-(dimethylamino)-1-piperidyl]-3-pyridyl]-1-(cis-3-methoxycyclobutyl)-3-methyl-imidazo[4,5-c]quinolin-2-one]
> 15.3 µM | CO[C@H]1C[C@@H](n2c(=O)n(C)c3cnc4cc(F)c(-c5ccc(N6CCC(N(C)C)CC6)nc5)cc4c32)C1 [Example 42, 8-[6-[4-(dimethylamino)-1-piperidyl]-3-pyridyl]-7-fluoro-1-(cis-3-methoxycyclobutyl)-3-methyl-imidazo[4,5-c]quinolin-2-one]
7.72 µM | CNC1CCN(c2ccc(-c3cc4c(cc3F)ncc3c4n([C@H]4C[C@@H](OC)C4)c(=O)n3C)cn2)CC1 [Example 57, 7-Fluoro-1-(cis-3-methoxycyclobutyl)-3-methyl-8-[6-[4-(methylamino)-1-piperidyl]-3-pyridyl]imidazo[4,5-c]quinolin-2-one]
0.989 µM | CNC1CCN(c2ccc(-c3ccc4ncc5c(c4c3)n([C@H]3C[C@@H](OC)C3)c(=O)n5C)cn2)CC1 [Example 60, 1-(cis-3-methoxycyclobutyl)-3-methyl-8-[6-[4-(methylamino)-1-piperidyl]-3-pyridyl]imidazo[4,5-c]quinolin-2-one]
